The text below walks through data of paper PMC4102965 (ACS Chemical Neuroscience, 2014).

Structures are written as SMILES. Like-named read-outs stand apart in the source and are kept apart here. Marks after values point to notes of the source that are not given here.

The test system of one data set is PSL rats. Kind of data set: Anti-allodynia test in PSL. As to conditions: 30 mg/kg oral. It counts as in vivo.
The nature of data set [1]: Pharmacokinetics after single oral dosing, plasma and brain by LC-MS/MS. As to conditions: male, SD, rat, 30 mg/kg. In kind it is in vivo, rats.
Data set [2] has as its target gabapentin-binding site (presumably α2-δ subunit proteins) (Rattus norvegicus, UniProt P54290). Put plainly: [3H]gabapentin-binding assay, rat cerebral cortex membranes.
A further data set has as its system SNL rats. The note with it: previously reported; cited from earlier work.
For data set [3] the following is noted: human; cited from earlier work.
The conditions of data set [4]: dog; cited from earlier work.
Data set [5] has as its system neuromuscular coordination in rats. Put plainly: Rotarod test. As to conditions: for duration (s) 1 h / duration (s) 2 h / duration (s) 3 h: mean (SEM), max 180 s.
The next data set deals with SNL mice. Put plainly: Anti-allodynia test in SNL. The note with it: 30 mg/kg oral gavage.

Chain of gabapentin-binding site (presumably α2-δ subunit proteins) (P54290 25-1091): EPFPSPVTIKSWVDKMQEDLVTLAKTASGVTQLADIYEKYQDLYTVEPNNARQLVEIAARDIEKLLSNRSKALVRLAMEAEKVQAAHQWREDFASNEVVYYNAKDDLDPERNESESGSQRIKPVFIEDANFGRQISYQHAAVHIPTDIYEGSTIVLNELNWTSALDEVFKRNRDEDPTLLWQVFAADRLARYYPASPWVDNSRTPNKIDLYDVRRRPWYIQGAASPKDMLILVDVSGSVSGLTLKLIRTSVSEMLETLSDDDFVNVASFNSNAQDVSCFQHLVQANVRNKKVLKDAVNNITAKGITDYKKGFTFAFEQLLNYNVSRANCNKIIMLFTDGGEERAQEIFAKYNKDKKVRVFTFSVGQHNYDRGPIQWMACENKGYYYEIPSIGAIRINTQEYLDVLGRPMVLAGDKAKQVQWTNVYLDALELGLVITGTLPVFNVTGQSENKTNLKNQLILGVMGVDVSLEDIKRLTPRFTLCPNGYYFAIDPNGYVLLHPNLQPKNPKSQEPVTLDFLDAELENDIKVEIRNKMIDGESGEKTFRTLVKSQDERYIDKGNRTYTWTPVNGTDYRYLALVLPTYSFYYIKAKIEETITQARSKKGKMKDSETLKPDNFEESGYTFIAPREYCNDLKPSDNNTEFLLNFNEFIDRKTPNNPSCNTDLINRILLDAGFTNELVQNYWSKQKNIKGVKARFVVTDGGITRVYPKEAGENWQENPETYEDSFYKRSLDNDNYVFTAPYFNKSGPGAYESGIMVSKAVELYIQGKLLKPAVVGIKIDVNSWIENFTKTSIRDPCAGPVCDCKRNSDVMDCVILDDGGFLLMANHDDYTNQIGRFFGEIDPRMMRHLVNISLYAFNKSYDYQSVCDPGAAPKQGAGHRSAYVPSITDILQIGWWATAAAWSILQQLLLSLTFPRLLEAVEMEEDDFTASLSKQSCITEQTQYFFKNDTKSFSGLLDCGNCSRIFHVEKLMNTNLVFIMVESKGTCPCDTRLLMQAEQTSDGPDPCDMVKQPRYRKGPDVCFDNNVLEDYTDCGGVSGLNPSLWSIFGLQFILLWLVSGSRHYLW

By inhibition is commonly meant how much of the control response was suppressed. On to `CC(C)CC(CN)CC(=O)O` (centres unmarked) [pregabalin, 3-isobutyl-γ-aminobutyric acid], for which, in the data set with PSL rats (PSL (Seltzer) rats), the analgesic effects result is listed as “significant analgesic effects”. In addition, the “time at which efficacy on the ipsilateral side peaked” value in the data set with PSL rats (PSL rats) came out at 180 min. Further, the “time up to which efficacy on the ipsilateral side was sustained” value in the data set on PSL rats (PSL rats) worked out at 300 min. Moreover, in the data set on PSL rats (PSL rats, 180 min after administration), the “hypalgesic effect on the contralateral side” value is reported as “remarkable hypalgesic effect”. In addition, the concentration at 1 h in data set [1] (brain) was determined as 12.4 µM; in data set [1] (plasma), 109 µM. Further, the “RBA (%)” value in data set [2] (IC50 of pregabalin divided by IC50 of test compound) amounted to 100%. Besides, in data set [2] (read-out: % inhibition (at μM)), the inhibition at 0.39 µM is 79%. In addition, the “effect on pain thresholds on both sides of SNL rats” value in the data set with SNL rats is recorded as “bilateral hypalgesic activity”. The “plasma half-life (T1/2)” value in data set [3] and in data set [4] was “around 6 h” each time. Also, the results for the “duration (s) 1 h” value in data set [5] (10 mg/kg oral), in data set [5] (30 mg/kg oral) and in data set [5] (100 mg/kg oral) were 180 (0.0) s, 180 (0.0) s and 53 (11.5)^# s, respectively. Further, the entries for the “duration (s) 2 h” value in data set [5] (10 mg/kg oral), in data set [5] (30 mg/kg oral) and in data set [5] (100 mg/kg oral) were 160 (19.8) s, 93 (24.4)^## s and 13 (6.3)^## s, respectively. For the same compound, the “duration (s) 3 h” value was “significantly shortened” in data set [5] (10 mg/kg oral, 10 mg/kg); 12 (3.7)^## s in data set [5] (30 mg/kg oral); 6 (2.1)^## s in data set [5] (100 mg/kg oral). Besides, the “effect on neuromuscular coordination (duration on the rotating rods)” value in data set [5] (oral, over the doses tested) was “significantly and dose-dependently reduced the duration”. The “antiallodynic activity (pain thresholds, paw withdrawal to von Frey filaments)” value in the data set on SNL mice (SNL mice) is reported as “significant antiallodynic activity”. In the data set on SNL mice (sham mice), the “pain thresholds in sham mice (hypalgesic effect)” value is on record as “significantly increased the pain thresholds in sham mice at the late time point of 180 min”.
